Here are results for 1 molecule from paper PMC5865291, “A fast and sensitive activity assay for lytic polysaccharide monooxygenase” (Biotechnology for Biofuels, 2018).

SMILES strings stand for the structures.

This experiment concerns the target T1, NcLPMO9F (Neurospora crassa, UniProt Q1K4Q1).
T1 construct: gene gh61-6; recombinant secreted from Pichia pastoris X-33, column purified; 23,200 g/mol
T1 sequence (Q1K4Q1 18-231): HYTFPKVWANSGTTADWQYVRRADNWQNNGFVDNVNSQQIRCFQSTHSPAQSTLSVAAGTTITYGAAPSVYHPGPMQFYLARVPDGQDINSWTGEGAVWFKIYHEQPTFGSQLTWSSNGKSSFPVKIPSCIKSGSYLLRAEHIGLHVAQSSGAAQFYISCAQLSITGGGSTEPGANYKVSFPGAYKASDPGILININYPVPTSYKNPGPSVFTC
Put plainly: spectrophotometric peroxidase assay at […] nm (coerulignone formation). It counts as biochemical. The settings on record: H2O2 cosubstrate, standard conditions (30 °C); turnover only.

In the case of `COc1cccc(OC)c1O` [2,6-dimethoxyphenol], the specific activity entry is “The peroxidase activity was found for three different LPMOs from two different organisms”.
